Assay results from PMC2099433, “The binding site for neohesperidin dihydrochalcone at the human sweet taste receptor” (BMC Structural Biology, 2007).
Substitutions are numbered along the chain they refer to. Where a SMILES comes first, the peptide text is derived from it.

Legend:
[1] = target: T1, hTAS1R2 + hTAS1R3 L798I^7.36 (Homo sapiens, UniProt Q7RTX0+Q8TE23, L798I); assay: Calcium response (FLIPR), hTAS1R3 mutant coexpressed with hTAS1R2; assay type: cell-based; conditions: variant L798I^7.36; for Emax: read-out: maximal signal (% of wt)
T1 construct: expressed in transfected cells; host or cells: HEK293T cells stably expressing G16Gust44
T1 sequence (Q8TE23 20-839): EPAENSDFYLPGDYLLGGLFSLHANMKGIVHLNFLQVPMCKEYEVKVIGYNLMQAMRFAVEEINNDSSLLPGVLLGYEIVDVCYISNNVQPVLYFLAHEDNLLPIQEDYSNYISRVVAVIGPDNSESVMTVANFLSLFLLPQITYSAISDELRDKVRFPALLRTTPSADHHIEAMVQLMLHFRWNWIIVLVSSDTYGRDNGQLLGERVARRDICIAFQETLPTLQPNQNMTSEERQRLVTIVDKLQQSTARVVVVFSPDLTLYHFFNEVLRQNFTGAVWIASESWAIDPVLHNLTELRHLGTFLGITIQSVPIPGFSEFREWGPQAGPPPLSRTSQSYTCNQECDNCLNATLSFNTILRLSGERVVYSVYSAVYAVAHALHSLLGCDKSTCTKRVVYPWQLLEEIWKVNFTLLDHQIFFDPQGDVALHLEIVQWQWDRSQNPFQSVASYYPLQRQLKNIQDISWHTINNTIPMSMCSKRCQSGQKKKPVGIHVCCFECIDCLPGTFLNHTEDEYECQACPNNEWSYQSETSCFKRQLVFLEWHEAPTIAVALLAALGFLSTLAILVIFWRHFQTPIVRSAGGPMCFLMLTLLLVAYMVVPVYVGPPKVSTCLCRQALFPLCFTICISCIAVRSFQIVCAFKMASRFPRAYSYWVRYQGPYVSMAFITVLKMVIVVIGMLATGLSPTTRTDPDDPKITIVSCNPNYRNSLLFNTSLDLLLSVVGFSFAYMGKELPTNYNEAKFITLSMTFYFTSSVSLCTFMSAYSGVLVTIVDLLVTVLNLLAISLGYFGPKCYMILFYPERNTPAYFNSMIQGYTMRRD
T1 sequence (Q7RTX0 21-852 L798I): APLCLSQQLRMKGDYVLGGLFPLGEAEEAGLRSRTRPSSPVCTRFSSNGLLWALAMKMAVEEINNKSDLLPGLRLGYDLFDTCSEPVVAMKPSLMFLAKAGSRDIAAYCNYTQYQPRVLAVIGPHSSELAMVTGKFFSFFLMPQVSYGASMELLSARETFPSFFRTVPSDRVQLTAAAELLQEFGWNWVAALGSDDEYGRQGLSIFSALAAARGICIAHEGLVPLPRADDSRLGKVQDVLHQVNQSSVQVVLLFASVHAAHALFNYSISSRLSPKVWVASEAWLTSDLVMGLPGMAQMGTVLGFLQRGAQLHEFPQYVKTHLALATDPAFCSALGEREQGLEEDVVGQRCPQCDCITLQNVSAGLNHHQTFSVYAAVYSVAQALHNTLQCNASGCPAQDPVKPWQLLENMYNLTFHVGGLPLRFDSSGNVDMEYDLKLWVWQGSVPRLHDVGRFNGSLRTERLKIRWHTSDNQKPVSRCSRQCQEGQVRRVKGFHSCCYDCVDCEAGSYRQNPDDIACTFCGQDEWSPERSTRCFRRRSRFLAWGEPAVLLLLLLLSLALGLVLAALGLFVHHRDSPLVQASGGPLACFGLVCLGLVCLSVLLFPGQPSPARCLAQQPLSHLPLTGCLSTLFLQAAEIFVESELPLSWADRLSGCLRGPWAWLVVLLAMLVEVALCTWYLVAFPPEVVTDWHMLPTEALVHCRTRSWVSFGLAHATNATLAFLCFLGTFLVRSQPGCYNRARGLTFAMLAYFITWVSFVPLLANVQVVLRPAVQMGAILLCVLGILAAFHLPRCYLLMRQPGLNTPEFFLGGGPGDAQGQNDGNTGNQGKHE
Outline: (§1)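 HEK293T cells stably expressing chimeric G16Gust44 were transiently transfected with C-terminally HSV-tagged hTAS1R2 and mutant hTAS1R3, then loaded 24 h later with Fluo4-AM for 1 h. Calcium mobilization after sweet-tastant application was read by FLIPR, mock-corrected and expressed as ΔF/F.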

[2] = target: T2, hTAS1R2 + hTAS1R3 R725M^5.38 (Homo sapiens, UniProt Q7RTX0+Q8TE23, R725M); assay: as above; assay type: cell-based; conditions: variant R725M^5.38; for Emax: read-out: maximal signal (% of wt)
T2 construct: expressed in transfected cells; host or cells: HEK293T cells stably expressing G16Gust44
T2 sequence (Q7RTX0 21-852 R725M): T1 sequence (Q7RTX0 21-852 L798I) with R705M, I778L
T2 sequence (Q8TE23 20-839): T1 sequence (Q8TE23 20-839)
Outline: as §1

Row | EC50 [1] | Emax [1] | EC50 [2] | Emax [2] | SMILES
1 | 200 ± 200 µM | 66 ± 26% | 1300 ± 400 µM | 64 ± 14% | COc1ccc(CCC(=O)c2c(O)cc(O[C@@H]3O[C@H](CO)[C@@H](O)[C@H](O)[C@H]3O[C@@H]3O[C@@H](C)[C@H](O)[C@@H](O)[C@H]3O)cc2O)cc1O [NHDC, neohesperidin dihydrochalcone]
2 | 900 ± 400 µM | 81 ± 5% | 1500 ± 700 µM | 56 ± 1% | COC(=O)[C@H](Cc1ccccc1)NC(=O)[C@@H](N)CC(=O)O [aspartame] (HELM PEPTIDE1{D.F.[CO[*:1]]}$$$$V2.0)
